Results reported in patent publication US12186283B2, “Bismuth-thiol compositions and methods of use” (Microbion Corporation, priority 2018, dated 2025).
Converted amounts (≈) assume the structure as drawn.

What was measured:
[1] = test system: Burkholderia cepacia complex; test: Broth microdilution MIC (Example 10); settings: initial MIC testing
[2] = test system: Burkholderia cepacia complex; test: Checkerboard FIC assay, BisEDT with CF agents (Example 10); type: cell-based, Burkholderia spp.; settings: agent alone, as observed during FIC testing
P. aeruginosa = test: Broth microdilution MIC (Example 10)

`C[C@H]1[C@H](NC(=O)/C(=N\OC(C)(C)C(=O)O)c2csc(N)n2)C(=O)N1S(=O)(=O)O` [AZT] gave an MIC ([1]; B. cenocepacia isolate 0813 (CPI-I)) of 8 µg/mL (≈ 18.4 µM), an MIC ([1]; B. cenocepacia isolate 1631) of 32 µg/mL (≈ 73.5 µM) and an MIC ([1]; B. cenocepacia isolate 1783) of 32 µg/mL (≈ 73.5 µM). For the same compound, the MIC ([1]; B. cenocepacia isolate 8555) was 256 µg/mL (≈ 588 µM), the MIC ([1]; B. cepacia isolate 0546) was 16 µg/mL (≈ 36.7 µM) and the MIC ([1]; B. cepacia isolate 0547) was 16 µg/mL (≈ 36.7 µM). For the same compound, the MIC ([1]; B. cepacia isolate 1793) was 128 µg/mL (≈ 294 µM), the MIC ([1]; B. cepacia isolate 1794) was 32 µg/mL (≈ 73.5 µM) and the MIC ([1]; B. cepacia isolate 9040) was 32 µg/mL (≈ 73.5 µM). The MIC ([1]; B. multivorans isolate 1580 (CIP-R)) was 64 µg/mL (≈ 147 µM), the MIC ([1]; B. multivorans isolate 1791) was 4 µg/mL (≈ 9.19 µM) and the MIC ([1]; B. multivorans isolate 1795 (MEM-I, CIP-R)) was 4 µg/mL (≈ 9.19 µM). The MIC ([1]; B. multivorans isolate 5665 (CIP-I)) was 4 µg/mL (≈ 9.19 µM), the MIC ([1]; B. multivorans isolate 8952 (CIP-I)) was 8 µg/mL (≈ 18.4 µM) and the MIC ([2]; B. cenocepacia isolate 0548) was 64 µg/mL. For the same compound, the MIC ([2]; B. cenocepacia isolate 0813) was 32 µg/mL, the MIC ([2]; B. multivorans isolate 1795) was 16 µg/mL and the MIC (P. aeruginosa; P. aeruginosa isolate 103 (ATCC 25922), QC strain, initial MIC testing) was 8 µg/mL (≈ 18.4 µM). It also gave an MIC (P. aeruginosa; P. aeruginosa isolate 103 (ATCC 25922), during FIC testing, each agent tested alone for QC, one replicate) of 8 µg/mL, an MIC (P. aeruginosa; P. aeruginosa isolate 1497 (TOB-R, AMK-R, CIP-I, AZT-R, COL-R), initial MIC testing) of 32 µg/mL (≈ 73.5 µM) and an MIC (P. aeruginosa; P. aeruginosa isolate 1530 (TOB-R, AMK-R, CIP-R), initial MIC testing) of 4 µg/mL (≈ 9.19 µM). It also gave an MIC (P. aeruginosa; P. aeruginosa isolate 1553 (TOB-R, AMK-R, CIP-R), initial MIC testing) of 8 µg/mL (≈ 18.4 µM), an MIC (P. aeruginosa; P. aeruginosa isolate 6322 (MEM-R, TOB-R, AMK-R, CIP-R, AZT-R), initial MIC testing) of 64 µg/mL (≈ 147 µM) and an MIC (P. aeruginosa; P. aeruginosa isolate 6977 (MEM-I, TOB-R, CIP-R, AZT-I), initial MIC testing) of 16 µg/mL (≈ 36.7 µM). For the same compound, the MIC (P. aeruginosa; P. aeruginosa isolate 7745 (MEM-R, CIP-R, AZT-R), initial MIC testing) was 32 µg/mL (≈ 73.5 µM), the MIC (P. aeruginosa; P. aeruginosa isolate 7754 (MEM-R, TOB-R, CIP-R, AZT-I), initial MIC testing) was 16 µg/mL (≈ 36.7 µM) and the MIC (P. aeruginosa; P. aeruginosa isolate 7762 (MEM-I, CIP-I), initial MIC testing) was 8 µg/mL (≈ 18.4 µM). For the same compound, the MIC (P. aeruginosa; P. aeruginosa isolate 7871 (MEM-R, AZT-I), initial MIC testing) was 16 µg/mL (≈ 36.7 µM), the MIC (P. aeruginosa; P. aeruginosa isolate 7874, initial MIC testing) was 4 µg/mL (≈ 9.19 µM) and the MIC (P. aeruginosa; P. aeruginosa isolate 7886 (MEM-R, CIP-R, AZT-R), initial MIC testing) was 64 µg/mL (≈ 147 µM). For the same compound, the MIC (P. aeruginosa; P. aeruginosa isolate 8797 (MEM-R, TOB-R, AMK-R, CIP-R, AZT-R, COL-R), initial MIC testing) was greater than 256 µg/mL, the MIC (P. aeruginosa; P. aeruginosa isolate 8798 (MEM-R, TOB-R, AMK-R, CIP-R, AZT-R, COL-R), initial MIC testing) was 256 µg/mL (≈ 588 µM) and the MIC (P. aeruginosa; P. aeruginosa isolate 9108 (CIP-R, AZT-I), initial MIC testing) was 16 µg/mL (≈ 36.7 µM).
